| SMILES | melting point [°C] |
| --- | --- |
| CCCc1nc2c(N)nc3cc(Oc4cccc(NCC)c4)ccc3c2n1CC(C)C | 168 to 174 |
| Cc1c(Br)c(=O)n(C2CCCC2)c2nc(Nc3ccc(N4CCN(C(=O)OC(C)(C)C)CC4)cn3)ncc12 | > 250 |
| Brc1ccc2c(c1)C=NC=CN2 | 135 to 138 |
| COc1cc(C2C3=C(CNC3=O)Nc3cc4c(cc32)OCO4)cc(OC)c1OC (centres undefined) | 244 |
| COc1ccc(-c2[nH]nc3c2C(=O)c2c(NC(=O)Cc4cc(OC)ccc4OC)cccc2-3)cc1 | 226 |
| COc1cc(C(=O)NS(=O)(=O)c2ccccc2Br)ccc1Cc1cccc2ccc(CCCCC(=O)N(C)C)cc12 | 91 to 97 |
| O=C(Nc1cccc(OCCCN2CCOCC2)c1)C12CC3CC(CC(C3)C1)C2 | 160 to 164 |
| Cc1ccc(-c2nc(CCl)cs2)s1 | 89 to 90 |
| O=[N+]([O-])CS(=O)(=O)c1ccc(F)cc1F | 74 to 75 |
| COc1c(-c2ccccc2)c2ccc(-c3ccc(C(C)C)cc3)cc2oc1=O | 85.5 |
| COC(=O)C1CCC2ON=C(c3ccc(Cl)cc3)C2CC1 (centres undefined) | 150 to 185 |
| COc1nccc(N[C@H]2CC[C@H](c3ccccc3)CC2)c1Br | 105 |
| CS(=O)(=O)OCc1ccc(-c2nnc3n2-c2cccnc2Nc2ccccc2-3)cc1 | 252 to 253 |
| CS(=O)(=O)Nc1cccc(Br)n1 | 90 to 94 |
| C=CCN1CCCN(c2c(C)cccc2Cl)C1=S | 82 to 84 |
| COc1nc(C)c(CCN2CC=C(c3c[nH]c4ccccc34)CC2)c(=O)n1C | 209 to 211 |
| Cc1cccc(/C=C/c2nc(COc3ccc(CCCCn4ccnc4CCO)cc3)co2)c1 | 109 to 111 |
| Cn1cnc(COc2nn3c(-c4ccccc4)nnc3c(Cl)c2N2CCCC2)n1 | 198 to 199 |
| CC(=O)NCC1(C)CC(O)c2ccccc2O1 (centres undefined) | 168 to 170 |
| N#Cc1cc(O)cc2nc(-c3ccc(O)c(F)c3)oc12 | 308 to 310 |
| Clc1ccc2c(NCCCN3CCCCC3)ccnc2c1 | 113 to 116 |
| O=C(OCCN1CCN(c2cccc(C(F)(F)F)c2)CC1)c1cc(F)ccc1Nc1ccnc2cc(Cl)ccc12 | 113 |
| CC(=O)SCCCCCCCCCCCOCCOCCOCCOc1ccc(OCc2ccccc2)cc1 | 55 to 57 |
| CC(C)=C(C(=O)O)c1ccc(F)cc1 | 124 to 126 |
| COc1ccc(-c2nc(C)c(C)nc2-c2ccc(OC)cc2)cc1 | 106 to 108 |
| Cc1ccc(C)c(SCCC(=O)O)c1 | 100 to 102 |

| SMILES | melting point [°C] |
| --- | --- |
| O=[N+]([O-])c1ccc(Cl)cc1NCC1CCCCC1 | 73 |
| CCCn1cnc2c1c(=O)n(CC(C)(O)C#CCN(CC)CC)c(=O)n2C (centres undefined) | 109 |
| COc1cc2c(cc1OC)CC(NCC(N)=O)C2 | 135 to 138 |
| COc1cc(-c2nn(C)c(C(F)(F)F)c2Cl)c(F)cc1Cl | 70 to 71 |
| C[Si]1(CC(CN)CC(=O)O)CCCCC1 (centres undefined) | 140 to 143 |
| CN(C=O)c1ccccc1C(=O)COS(C)(=O)=O | 67 to 69 |
| COc1cc(Nc2c(C#N)cnc3cc(Br)c(OC)cc23)c(Cl)cc1Cl | > 250 |
| CC(C)C(OC(=O)NC(C)(Cc1ccccc1)C(=O)NC(Cc1ccc(O)cc1)C(=O)NCCCCCCCO)c1ccccc1 (centres undefined) | 70 to 76 |
| NS(=O)(=O)c1ccc(-n2cc(C(F)(F)F)nc2-c2ccc(-c3cscn3)cc2)cc1F | 130 to 133 |
| O=Cc1cn(Cc2ccc(OCc3ccccc3)cc2)nc1OCc1ccc(OCc2ccccc2)cc1 | 138 to 139 |
| Cn1c(CCN2CCC(c3ccccc3)CC2)nc2cc(Br)c3ccccc3c21 | 182 to 184 |
| O=C(c1ccccc1)c1cc(Cl)ccc1-n1cnnc1 | 182 to 184 |
| COC(=O)CN(CC(=O)OC)c1cc(OCCCCCCCCCCCCOc2ccccc2)cc(OCCCOc2ccc(S(C)=O)cc2)c1 (centres undefined) | 47 to 49 |
| CN1C(=O)CN=C(c2ccccc2F)c2cc(NC(=O)NC(C)(C)CO)ccc21 | 162 to 176 |
| COc1ccc(CCC2COC(Cn3ccnc3)(c3ccc(Cl)cc3Cl)O2)cc1 (centres undefined) | 131 |
| COc1ccc(N2CC(=O)N(c3ccc(OC)nc3-c3ccc(N(C)C)cc3)CC2=O)cc1 | 138 to 139 |
| COc1ccc2[nH]cc(CCN=c3sc4ccccc4s3)c2c1 | 139 to 140 |
| CCC1(CC)c2cc(-c3nc4ccccc4s3)ccc2-c2ccc(N(c3ccc(O)cc3)c3ccc(O)cc3)cc21 | 294 to 297 |
| Clc1ccc(NC2CCCCC2)nn1 | 161 to 163 |
| N=C(NO)c1ccc(-c2cccc(-c3cn4cc(C(=N)NO)ccc4n3)c2)cc1 | 252 to 254 |
| CCN1CNS(=O)(=O)c2sc(Cl)cc21 | 119 to 120 |
| COc1cc(/C=C/c2cc(OC)c(OC)c(OC)c2)cc(OC)c1OC | 220 |
| CCCCCCCCOc1ccc(-c2ccc(OCCCCCCCC)c(F)c2)cc1F | 84 |
| CC(C)NCCCCCCOc1ccc(OCc2ccccc2)cc1 | 47 to 49 |
| CCCCn1nc(C(C)(F)F)nc1Cc1ccc(-c2ccccc2-c2nnn[nH]2)nc1 | 180 to 182 |
| CCCCP(=O)(C(=O)c1c(C)cc(C)cc1C)C(=O)c1c(OC)cccc1OC (centres undefined) | 94 to 96 |

More lines, now with the values ahead:

| melting point [°C] | SMILES |
| --- | --- |
| 50 to 53 | Cc1cc(Oc2c(Cl)cc(C(F)(F)F)cc2Cl)nn1C(=O)NCc1ccccc1 |
| 92 to 97 | CC(C)Cc1ccc2oc(=O)c(=O)oc2c1 |
| 92 to 93 | COc1ccc(S(=O)(=O)Nc2ccccc2C(F)(F)F)cc1 |
| 128 to 130 | CCCSc1cn(C)cc(-c2ccc(Cl)c(C(F)(F)F)c2)c1=O |
| 238 to 240 | CC(C)(C)OC(=O)NCCNC(=O)c1cc(-c2ccccc2)c(=O)n2c1-c1ccccc1C2 |
| 210 | CCCC1=C(C(=O)OCC)C(c2ccccc2OC(C)C)c2c[nH]nc2N1 (centres undefined) |
| 155 to 158 | CCOC(=O)c1cnc(N)s1 |
| 120 to 122 | COC(=O)c1cn(-c2ccc(OC)c(OC3CC4CCC3C4)c2)c2ccccc12 (centres undefined) |
| 232 to 233 | Cc1cc(CN2CCOCC2)cc2c1Cc1c(-c3ccsc3)n[nH]c1-2 |
| 287 to 288 | Cc1c(F)c(F)c(F)c2c1c(=O)c(C(=O)O)cn2-c1ccc(O)cc1 |
| 252 | NC(=O)N1C(=O)C(C(=O)c2cccs2)c2cc(Cl)ncc21 (centres undefined) |
| 196 to 197 | Nc1cc(C(=O)O)cc(OCc2ccccc2)c1C(=O)c1ccc(Cl)cc1 |
| 229 to 230 | O=C(Nc1ccc2[nH]cc(C3CCNCC3)c2c1)c1ccc(F)cc1 |
| 200 to 203 | COC(=O)c1ccc(Cn2c(=O)c3cc(C(=O)NCc4cccc(OC)c4)sc3n(C)c2=O)cc1OC |
| 280 to 281 | O=C1COc2ccc(C3=Nc4ccccc4SC3)cc2N1 |
| 110 to 111 | Nc1ccc(Cl)cc1C(=O)c1ccccc1OCc1ccccc1 |
| 57 to 60 | CC(C)CC(=O)N1CCC(NC(=O)c2ccccc2Oc2ccc(Cl)cc2Cl)CC1 |
| 113 to 114 | C=C(C(=O)c1ccccc1)c1cccnc1 |
| 93 to 94 | c1ccc(N2c3ccccc3Sc3ccccc32)cc1 |
| > 260 | CCCn1c(C)nc2cc(C(=O)O)ccc21 |
| 182 to 184 | O=C(CNC(=O)C(Cc1ccccc1)NC(=O)C1CCCN1)Oc1c(Cl)c(Cl)c(Cl)c(Cl)c1Cl (centres undefined) |
| 228 to 229 | COc1cc2c(cc1OC)C(c1c(Cl)cccc1Cl)NC(=O)C2 (centres undefined) |
| 130 | Cc1ncc2cc(C(c3ccccc3)n3ccnc3)ccc2n1 (centres undefined) |
| 173 to 175 | CCOC(=O)c1cn(CC)c2cc(-c3csc(CN(C)C(C)=O)n3)c(F)cc2c1=O |

| melting point [°C] | SMILES |
| --- | --- |
| 125 to 127 | O=C(O)CN1C(=O)CN(Cc2ccccc2)C1=O |
| 157 to 158 | O=c1oc(OCCBr)c(Cl)c2ccc(NC(=S)Nc3ccccc3)cc12 |
| 206 to 208 | CC(=O)NCC1CN(c2ccc(N3CCN(c4nncs4)CC3)c(F)c2)C(=O)O1 (centres undefined) |
| 198 to 203 | C#CCN(Cc1ccc2nc(C)[nH]c(=O)c2c1)c1ccc(C(=O)NCC(OC(C)=O)c2ccc([N+](=O)[O-])cc2)cc1 (centres undefined) |
| 187 to 188 | CC1=C(C(=O)OC(C)C)C(c2cccc([N+](=O)[O-])c2)n2c(cc(=O)n2S(=O)(=O)c2ccccc2)N1 (centres undefined) |
| 112 to 114 | Cc1nc2ccccn2c(=O)c1CC1CCCCC1 |
| 215 to 217 | CCOC(=O)/C=C\n1c(=O)n2nc(C(=O)OCC)cc2c2ccc(Cl)cc21 |
| 142 | CN1CCN(C(=O)Nc2cccc3nc(NC4CCc5ccccc54)ccc23)CC1 (centres undefined) |
| 142 | FC(F)(F)c1cc(Nc2nnc(CCCc3cccnc3)c3ccccc23)ccc1Cl |
| 192 | COc1ccccc1NC(C(N)=O)c1c(Cl)cccc1Cl (centres undefined) |
| 116 to 117 | CCCOc1ccccc1-c1nc2nc(N(CC)CC)ncc2c(=O)[nH]1 |
| 136 to 137 | CC(=O)ON=C(c1ccccc1)c1cc(C(C)(C)C)c(O)c(C(C)(C)C)c1 |
| 75 to 77 | CNC(=O)ON=C(Nc1ccc(C(F)(F)F)cc1)C1=NN(c2ccc(Cl)cc2)C(c2ccc(F)cc2)C1 (centres undefined) |
| 60 to 63 | Clc1ccc2c(c1)CCC(c1cccnc1)O2 (centres undefined) |
| 140 to 143 | CCOC(=O)C1=C(C)NC(C#N)=C(C(=O)OCC)C1c1ccccc1C(F)(F)F (centres undefined) |
| 134 to 135 | COC(=O)c1cc(Cl)c(C(=O)OC)cc1Cl |
| 253 to 255 | O=C(NCc1ccc(Cl)cc1)c1cnc2c(F)cc(C#CCCO)cc2c1O |
| 123 to 125 | COc1ccc2c(c1)C(CCNC(C)=O)CN(Cc1ccccc1)C2 (centres undefined) |
| 137 to 138 | O=S1(=O)N[C@@H](c2cccc(Cl)c2)c2ccccc21 |
| 237 to 240 | O=[N+]([O-])c1ccc(NC2CC2)nc1Nc1ccc2[nH]ncc2c1 |
| 118 to 120 | CO/N=C(/C(=O)O)c1ccc(OCCOc2ccc3ccccc3c2)s1 |
| 128 | Cc1cc2ccccc2nc1NN |
| 220 | O=S(=O)(c1cccs1)c1ccc(O)c(Cl)c1Cl |

Source: a melting point compilation (Tetko et al.; mined from patent text by program, amines drawn as free bases though some values may be those of a salt)
